Data from article PMC3679734 (BMC Research Notes, 2013).

Assays:
human DAT [1] = target: T1, human DAT (Homo sapiens, UniProt Q01959); assay: Inhibition of DA uptake; format: cell-based
T1 construct: expressed in transfected cells; host or cells: HEK-293 cells (Invitrogen, Zug, Switzerland)
Protocol: The potencies of the drugs to inhibit the DAT were evaluated as previously described in HEK-293 cells (Invitrogen, Zug, Switzerland) stably transfected with the human DAT [8].

human DAT [2] = target: T1, human DAT; assay: Inhibition of methamphetamine-induced DA release; format: cell-based; details: HEK-293 cells expressing human DAT preloaded with 3H-DA; release induced with 10 μM methamphetamine, 15 min; means of 3–4 independent experiments and 95% CI
Protocol: We performed DA transporter mediated release experiments as previously published with slight modification. In brief, HEK-293 cells expressing the human DAT as stated above were cultured in 48 well-plates. Cells were filled with ^3H-DA, washed, and incubated with 250 μL buffer containing the drug alone or in combinations. […] DA release was stopped after 15 min by removing the release buffer from the cells. To quantify the DA release we determined the radioactivity in the cells after another wash step. The residual radioactivity in the cells after methamphetamine alone defined 100% DA release.

human DAT [3] = target: T1, human DAT; set-up: method as in PMID 22897747; details: read-out: DA release potency (EC50); HEK-293 cells expressing human DAT; 95% CI 0.9 μM-[…]; as shown previously ref 25; cited from earlier work

T1 sequence (Q01959 whole entry): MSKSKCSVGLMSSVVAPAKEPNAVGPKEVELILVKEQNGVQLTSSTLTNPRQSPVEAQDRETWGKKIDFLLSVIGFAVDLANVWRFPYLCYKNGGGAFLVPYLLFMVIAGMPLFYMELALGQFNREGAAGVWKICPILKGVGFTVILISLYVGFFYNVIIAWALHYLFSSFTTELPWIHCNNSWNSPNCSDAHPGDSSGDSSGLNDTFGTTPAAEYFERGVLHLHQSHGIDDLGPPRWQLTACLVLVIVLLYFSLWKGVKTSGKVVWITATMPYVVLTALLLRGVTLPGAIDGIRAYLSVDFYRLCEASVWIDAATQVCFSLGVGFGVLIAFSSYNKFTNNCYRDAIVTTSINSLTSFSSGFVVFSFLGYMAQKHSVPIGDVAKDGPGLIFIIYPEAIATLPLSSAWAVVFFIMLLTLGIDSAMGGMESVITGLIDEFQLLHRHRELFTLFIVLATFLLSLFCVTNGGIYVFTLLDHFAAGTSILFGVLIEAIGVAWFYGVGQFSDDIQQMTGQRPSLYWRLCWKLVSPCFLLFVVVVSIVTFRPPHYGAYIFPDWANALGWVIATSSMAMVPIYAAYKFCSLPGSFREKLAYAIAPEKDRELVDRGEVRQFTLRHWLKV

Row | Structure (SMILES) | IC50 (human DAT [1]; HEK-293 cells stably transfected with the human DAT, means of 3–4 independent experiments and 95% CI, read-out: DA uptake IC50 (95% CI)) | IC50 (human DAT [2]) | EC50 (human DAT [3]) | IC50 (human DAT [1])
1 | CCCC(C(=O)c1ccc2c(c1)OCO2)N1CCCC1 (stereo not shown) [MDPV, 3,4-methylenedioxypyrovalerone] | 31 nM | 280 nM |  | 
2 | CN[C@@H](C)Cc1ccccc1 [Methamphetamine, d-methamphetamine] |  |  | 1560 nM | 1050 nM
